# Reference: publication PMC6874179, “Development of Macrocycle Kinase Inhibitors for ALK2 Using Fibrodysplasia Ossificans Progressiva‐Derived Endothelial Cells” (JBMR Plus, 2019)
# Tests used:
# Test in all cases: Proqinase Kinase profiling
# Format in all cases: biochemical
# Settings in all cases: read-out: % inhibition at 100nM
# [1] = molecular target: T1, STK3 (Homo sapiens, UniProt Q13188)
# T1 construct: purchased DiscoverX
# [2] = molecular target: T2, MAPK14 (Homo sapiens, UniProt Q16539)
# T2 construct: purchased DiscoverX
# [3] = molecular target: T3, CDK2_cyclinA2 (Homo sapiens, UniProt P24941)
# T3 construct: purchased DiscoverX
# [4] = molecular target: T4, MYLK3 (Homo sapiens, UniProt Q32MK0)
# T4 construct: purchased DiscoverX
# [5] = molecular target: T5, NEK2 (Homo sapiens, UniProt P51955)
# T5 construct: purchased DiscoverX
# [6] = molecular target: T6, MARK4 (Homo sapiens, UniProt Q96L34)
# T6 construct: purchased DiscoverX
# [7] = molecular target: T7, MAP4K5 (Homo sapiens, UniProt Q9Y4K4)
# T7 construct: purchased DiscoverX
# [8] = molecular target: T8, STK24 (Homo sapiens, UniProt Q9Y6E0)
# T8 construct: purchased DiscoverX
# [9] = molecular target: T9, PLK2 (Homo sapiens, UniProt Q9NYY3)
# T9 construct: purchased DiscoverX
# [10] = molecular target: T10, EIF2AK1 (Homo sapiens, UniProt Q9BQI3)
# T10 construct: purchased DiscoverX
# [11] = molecular target: T11, PLK3 (Homo sapiens, UniProt Q9H4B4)
# T11 construct: purchased DiscoverX
# [12] = molecular target: T12, FRK (Homo sapiens, UniProt P42685)
# T12 construct: purchased DiscoverX
# [13] = molecular target: T13, PRKCH (Homo sapiens, UniProt P24723)
# T13 construct: purchased DiscoverX
# [14] = molecular target: T14, SLK (Homo sapiens, UniProt Q9H2G2)
# T14 construct: purchased DiscoverX
# [15] = molecular target: T15, RET_R813Q (Homo sapiens, UniProt P07949, R813Q)
# T15 construct: purchased DiscoverX
# [16] = molecular target: T16, PRKD3 (Homo sapiens, UniProt O94806)
# T16 construct: purchased DiscoverX
# [17] = molecular target: T17, MKNK2 (Homo sapiens, UniProt Q9HBH9)
# T17 construct: purchased DiscoverX
# [18] = molecular target: T18, PASK (Homo sapiens, UniProt Q96RG2)
# T18 construct: purchased DiscoverX
# [19] = molecular target: T19, CDK4_cyclinD3 (Homo sapiens, UniProt P11802)
# T19 construct: purchased DiscoverX
# [20] = molecular target: T20, ABL1_H396P (Homo sapiens, UniProt P00519, H396P)
# T20 construct: purchased DiscoverX
# [21] = molecular target: T21, SRMS (Homo sapiens, UniProt Q9H3Y6)
# T21 construct: purchased DiscoverX
# [22] = molecular target: T22, TLK2 (Homo sapiens, UniProt Q86UE8)
# T22 construct: purchased DiscoverX
# [23] = molecular target: T23, FGFR3_K650M (Homo sapiens, UniProt P22607, K650M)
# T23 construct: purchased DiscoverX
# [24] = molecular target: T24, PRKG1 (Homo sapiens, UniProt Q13976)
# T24 construct: purchased DiscoverX
# [25] = molecular target: T25, AURKA (Homo sapiens, UniProt O14965)
# T25 construct: purchased DiscoverX
# [26] = molecular target: T26, RPS6KA3 (Homo sapiens, UniProt P51812)
# T26 construct: purchased DiscoverX
# [27] = molecular target: T27, ALK_F1174L (Homo sapiens, UniProt Q9UM73, F1174L)
# T27 construct: purchased DiscoverX
# [28] = molecular target: T28, ROCK1 (Homo sapiens, UniProt Q13464)
# T28 construct: purchased DiscoverX
# [29] = molecular target: T29, MATK (Homo sapiens, UniProt P42679)
# T29 construct: purchased DiscoverX
# [30] = molecular target: T30, DAPK2 (Homo sapiens, UniProt Q9UIK4)
# T30 construct: purchased DiscoverX
# [31] = molecular target: T31, LCK (Homo sapiens, UniProt P06239)
# T31 construct: purchased DiscoverX
# [32] = molecular target: T32, FLT4 (Homo sapiens, UniProt P35916)
# T32 construct: purchased DiscoverX
# [33] = molecular target: T33, TEK_Y1108F (Homo sapiens, UniProt Q02763, Y1108F)
# T33 construct: purchased DiscoverX
# [34] = molecular target: T34, IKBKB (Homo sapiens, UniProt O14920)
# T34 construct: purchased DiscoverX
# [35] = molecular target: T35, WNK3 (Homo sapiens, UniProt Q9BYP7)
# T35 construct: purchased DiscoverX
# [36] = molecular target: T36, LIMK1 (Homo sapiens, UniProt P53667)
# T36 construct: purchased DiscoverX
# [37] = molecular target: T37, STK33 (Homo sapiens, UniProt Q9BYT3)
# T37 construct: purchased DiscoverX
# [38] = molecular target: T38, ACVR1B (Homo sapiens, UniProt P36896)
# T38 construct: purchased DiscoverX
# [39] = molecular target: T39, WNK1 (Homo sapiens, UniProt Q9H4A3)
# T39 construct: purchased DiscoverX
# [40] = molecular target: T40, MARK3 (Homo sapiens, UniProt P27448)
# T40 construct: purchased DiscoverX
# [41] = molecular target: T41, KIT_V654A (Homo sapiens, UniProt P10721, V654A)
# T41 construct: purchased DiscoverX
# [42] = molecular target: T42, ROCK2 (Homo sapiens, UniProt O75116)
# T42 construct: purchased DiscoverX
# [43] = molecular target: T43, MAP4K4 (Homo sapiens, UniProt O95819)
# T43 construct: purchased DiscoverX
# T16 sequence (O94806 whole entry): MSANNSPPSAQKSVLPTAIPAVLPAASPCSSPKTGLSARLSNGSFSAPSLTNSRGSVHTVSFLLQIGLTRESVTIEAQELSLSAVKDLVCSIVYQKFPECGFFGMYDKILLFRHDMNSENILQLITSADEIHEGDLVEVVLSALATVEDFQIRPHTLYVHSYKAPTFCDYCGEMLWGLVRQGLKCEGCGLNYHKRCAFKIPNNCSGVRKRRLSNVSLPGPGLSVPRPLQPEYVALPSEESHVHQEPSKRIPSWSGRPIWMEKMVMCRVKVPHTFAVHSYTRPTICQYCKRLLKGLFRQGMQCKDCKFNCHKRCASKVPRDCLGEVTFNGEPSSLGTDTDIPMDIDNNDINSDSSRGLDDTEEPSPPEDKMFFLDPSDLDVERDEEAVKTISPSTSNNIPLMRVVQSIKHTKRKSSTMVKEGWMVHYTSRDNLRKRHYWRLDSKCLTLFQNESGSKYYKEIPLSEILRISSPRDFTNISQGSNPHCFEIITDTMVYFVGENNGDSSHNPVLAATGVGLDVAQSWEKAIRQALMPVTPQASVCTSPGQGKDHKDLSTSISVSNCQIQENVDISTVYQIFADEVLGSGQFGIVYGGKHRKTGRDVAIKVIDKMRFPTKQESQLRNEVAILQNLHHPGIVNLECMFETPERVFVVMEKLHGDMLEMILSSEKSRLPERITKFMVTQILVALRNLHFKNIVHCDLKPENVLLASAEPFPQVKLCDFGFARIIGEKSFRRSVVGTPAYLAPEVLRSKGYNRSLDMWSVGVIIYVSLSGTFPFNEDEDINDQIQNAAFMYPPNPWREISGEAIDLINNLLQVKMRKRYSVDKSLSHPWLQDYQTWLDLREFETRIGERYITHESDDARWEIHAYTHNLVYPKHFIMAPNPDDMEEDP
# T41 sequence (P10721 26-976 V654A): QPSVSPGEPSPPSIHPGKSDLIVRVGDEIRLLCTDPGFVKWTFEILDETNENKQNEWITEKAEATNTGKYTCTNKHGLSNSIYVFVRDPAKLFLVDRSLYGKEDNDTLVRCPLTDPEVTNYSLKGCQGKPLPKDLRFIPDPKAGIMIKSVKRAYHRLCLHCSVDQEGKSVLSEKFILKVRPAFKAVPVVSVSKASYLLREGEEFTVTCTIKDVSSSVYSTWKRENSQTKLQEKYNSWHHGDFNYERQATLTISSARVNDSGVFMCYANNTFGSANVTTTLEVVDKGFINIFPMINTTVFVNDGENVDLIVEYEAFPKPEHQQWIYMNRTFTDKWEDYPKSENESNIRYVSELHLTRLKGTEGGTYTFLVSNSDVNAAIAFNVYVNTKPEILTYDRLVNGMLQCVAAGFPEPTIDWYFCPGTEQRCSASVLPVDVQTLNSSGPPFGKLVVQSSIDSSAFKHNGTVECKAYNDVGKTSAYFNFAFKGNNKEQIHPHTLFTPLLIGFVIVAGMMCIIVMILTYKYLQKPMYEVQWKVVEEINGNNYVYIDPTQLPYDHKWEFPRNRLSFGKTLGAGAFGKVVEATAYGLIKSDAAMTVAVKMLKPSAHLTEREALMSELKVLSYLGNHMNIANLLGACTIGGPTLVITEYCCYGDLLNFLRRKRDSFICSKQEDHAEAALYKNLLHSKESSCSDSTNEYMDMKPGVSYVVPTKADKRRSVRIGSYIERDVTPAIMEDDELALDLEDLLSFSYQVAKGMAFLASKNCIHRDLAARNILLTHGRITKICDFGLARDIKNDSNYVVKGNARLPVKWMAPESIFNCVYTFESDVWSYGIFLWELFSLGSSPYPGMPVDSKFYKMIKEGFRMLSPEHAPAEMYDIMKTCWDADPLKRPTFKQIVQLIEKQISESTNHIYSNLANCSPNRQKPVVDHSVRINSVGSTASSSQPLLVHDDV
# T40 sequence (P27448 whole entry): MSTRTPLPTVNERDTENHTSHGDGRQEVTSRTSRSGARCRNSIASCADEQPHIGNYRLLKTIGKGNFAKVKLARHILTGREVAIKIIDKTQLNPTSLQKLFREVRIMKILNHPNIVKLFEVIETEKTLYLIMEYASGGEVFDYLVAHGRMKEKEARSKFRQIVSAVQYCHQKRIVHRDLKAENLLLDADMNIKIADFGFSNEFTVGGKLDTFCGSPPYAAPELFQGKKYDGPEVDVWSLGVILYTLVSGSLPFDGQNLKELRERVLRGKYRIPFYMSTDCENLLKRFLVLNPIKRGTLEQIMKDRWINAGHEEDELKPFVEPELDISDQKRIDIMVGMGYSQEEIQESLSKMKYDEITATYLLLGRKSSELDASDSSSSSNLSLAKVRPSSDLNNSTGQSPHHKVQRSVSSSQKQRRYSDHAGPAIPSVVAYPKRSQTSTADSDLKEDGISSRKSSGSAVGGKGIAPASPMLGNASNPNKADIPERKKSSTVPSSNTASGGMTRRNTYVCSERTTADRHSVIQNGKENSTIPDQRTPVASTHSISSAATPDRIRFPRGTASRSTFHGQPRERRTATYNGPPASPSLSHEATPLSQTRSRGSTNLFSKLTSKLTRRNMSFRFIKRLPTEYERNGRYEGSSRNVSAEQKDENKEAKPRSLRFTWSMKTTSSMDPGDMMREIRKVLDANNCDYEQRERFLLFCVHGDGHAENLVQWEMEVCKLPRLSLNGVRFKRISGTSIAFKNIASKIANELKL
# T30 sequence (Q9UIK4 whole entry): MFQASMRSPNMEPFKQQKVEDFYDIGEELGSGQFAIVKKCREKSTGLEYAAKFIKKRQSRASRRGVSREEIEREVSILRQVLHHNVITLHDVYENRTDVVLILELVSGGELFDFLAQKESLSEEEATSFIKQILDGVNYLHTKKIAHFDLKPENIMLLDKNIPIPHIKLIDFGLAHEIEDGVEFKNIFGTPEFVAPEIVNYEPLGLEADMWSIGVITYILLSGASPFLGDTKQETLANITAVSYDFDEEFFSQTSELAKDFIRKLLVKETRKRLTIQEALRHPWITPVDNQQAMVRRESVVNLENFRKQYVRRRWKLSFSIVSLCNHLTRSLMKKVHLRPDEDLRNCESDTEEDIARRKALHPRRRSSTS
# T27 sequence (Q9UM73 19-1620 F1174L): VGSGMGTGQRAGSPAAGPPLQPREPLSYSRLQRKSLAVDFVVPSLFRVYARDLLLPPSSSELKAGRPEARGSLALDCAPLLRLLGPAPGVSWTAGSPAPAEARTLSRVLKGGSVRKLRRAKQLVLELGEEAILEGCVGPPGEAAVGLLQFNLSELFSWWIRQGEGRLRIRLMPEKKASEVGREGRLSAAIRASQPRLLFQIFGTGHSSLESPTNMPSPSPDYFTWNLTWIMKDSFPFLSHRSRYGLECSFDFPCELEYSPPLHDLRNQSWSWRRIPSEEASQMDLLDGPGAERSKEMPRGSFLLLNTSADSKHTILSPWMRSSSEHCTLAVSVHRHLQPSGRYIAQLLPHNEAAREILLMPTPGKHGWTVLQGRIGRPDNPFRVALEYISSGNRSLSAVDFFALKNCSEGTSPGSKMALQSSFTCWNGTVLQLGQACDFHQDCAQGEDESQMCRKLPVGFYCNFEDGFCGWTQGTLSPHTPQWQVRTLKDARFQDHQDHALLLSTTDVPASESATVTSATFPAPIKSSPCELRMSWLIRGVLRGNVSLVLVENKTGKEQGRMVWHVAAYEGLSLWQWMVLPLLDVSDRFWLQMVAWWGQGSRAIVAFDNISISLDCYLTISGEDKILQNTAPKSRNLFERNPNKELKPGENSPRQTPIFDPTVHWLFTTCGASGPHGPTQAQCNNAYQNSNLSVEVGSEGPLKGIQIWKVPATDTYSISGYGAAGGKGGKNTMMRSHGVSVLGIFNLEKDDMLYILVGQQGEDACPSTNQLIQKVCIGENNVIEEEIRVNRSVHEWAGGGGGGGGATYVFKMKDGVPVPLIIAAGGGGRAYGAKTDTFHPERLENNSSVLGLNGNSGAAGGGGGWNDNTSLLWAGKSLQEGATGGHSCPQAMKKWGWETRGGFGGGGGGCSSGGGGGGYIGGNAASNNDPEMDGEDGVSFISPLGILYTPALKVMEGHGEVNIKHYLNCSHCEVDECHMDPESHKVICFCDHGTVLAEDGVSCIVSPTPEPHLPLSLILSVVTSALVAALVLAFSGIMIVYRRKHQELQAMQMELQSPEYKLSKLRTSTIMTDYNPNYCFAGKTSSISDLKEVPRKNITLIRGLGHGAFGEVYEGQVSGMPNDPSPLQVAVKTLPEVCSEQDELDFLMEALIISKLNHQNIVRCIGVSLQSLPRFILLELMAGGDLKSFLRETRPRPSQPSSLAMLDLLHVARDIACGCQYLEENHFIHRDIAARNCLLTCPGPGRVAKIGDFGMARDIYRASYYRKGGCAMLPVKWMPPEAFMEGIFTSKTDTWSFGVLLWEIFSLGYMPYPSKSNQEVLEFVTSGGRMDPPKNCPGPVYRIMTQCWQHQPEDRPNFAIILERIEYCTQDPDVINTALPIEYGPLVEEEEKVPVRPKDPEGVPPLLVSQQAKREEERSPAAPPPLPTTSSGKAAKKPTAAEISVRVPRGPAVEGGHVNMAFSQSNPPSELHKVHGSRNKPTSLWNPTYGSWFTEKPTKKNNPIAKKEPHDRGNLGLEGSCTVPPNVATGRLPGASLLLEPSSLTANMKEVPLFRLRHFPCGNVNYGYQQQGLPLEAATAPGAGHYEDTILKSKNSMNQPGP
# T25 sequence (O14965 whole entry): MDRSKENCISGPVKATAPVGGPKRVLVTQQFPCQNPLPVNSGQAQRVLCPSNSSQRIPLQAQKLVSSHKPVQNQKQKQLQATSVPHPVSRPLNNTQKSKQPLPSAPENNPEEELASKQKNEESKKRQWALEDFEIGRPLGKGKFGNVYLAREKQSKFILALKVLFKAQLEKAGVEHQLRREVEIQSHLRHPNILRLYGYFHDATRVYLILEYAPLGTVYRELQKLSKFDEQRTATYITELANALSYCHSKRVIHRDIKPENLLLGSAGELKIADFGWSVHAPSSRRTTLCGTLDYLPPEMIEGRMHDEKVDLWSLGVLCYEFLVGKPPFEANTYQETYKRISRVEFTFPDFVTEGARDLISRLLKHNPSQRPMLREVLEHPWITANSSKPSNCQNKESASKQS
structure (smiles),measurement,setting,value
Clc1cc2cc(c1)-c1cnn3ccc(nc13)NCCOCCO2 [OD36],inhibition at 0.1 µM,[1],12%
same,inhibition at 0.1 µM,[2],-4%
same,inhibition at 0.1 µM,[3],4%
same,inhibition at 0.1 µM,[4],15%
same,inhibition at 0.1 µM,[5],0%
same,inhibition at 0.1 µM,[6],13%
same,inhibition at 0.1 µM,[7],18%
same,inhibition at 0.1 µM,[8],8%
same,inhibition at 0.1 µM,[9],17%
same,inhibition at 0.1 µM,[10],-4%
same,inhibition at 0.1 µM,[11],-4%
same,inhibition at 0.1 µM,[12],35%
same,inhibition at 0.1 µM,[13],5%
same,inhibition at 0.1 µM,[14],13%
same,inhibition at 0.1 µM,[15],45%
same,inhibition at 0.1 µM,[16],2%
same,inhibition at 0.1 µM,[17],28%
same,inhibition at 0.1 µM,[18],3%
same,inhibition at 0.1 µM,[19],-30%
same,inhibition at 0.1 µM,[20],21%
same,inhibition at 0.1 µM,[21],11%
same,inhibition at 0.1 µM,[22],31%
same,inhibition at 0.1 µM,[23],2%
same,inhibition at 0.1 µM,[24],3%
same,inhibition at 0.1 µM,[25],-7%
same,inhibition at 0.1 µM,[26],11%
same,inhibition at 0.1 µM,[27],8%
same,inhibition at 0.1 µM,[28],1%
same,inhibition at 0.1 µM,[29],9%
same,inhibition at 0.1 µM,[30],17%
same,inhibition at 0.1 µM,[31],48%
same,inhibition at 0.1 µM,[32],44%
same,inhibition at 0.1 µM,[33],-27%
same,inhibition at 0.1 µM,[34],1%
same,inhibition at 0.1 µM,[35],5%
same,inhibition at 0.1 µM,[36],16%
same,inhibition at 0.1 µM,[37],-1%
same,inhibition at 0.1 µM,[38],22%
same,inhibition at 0.1 µM,[39],18%
same,inhibition at 0.1 µM,[40],8%
same,inhibition at 0.1 µM,[41],5%
same,inhibition at 0.1 µM,[42],7%
same,inhibition at 0.1 µM,[43],38%
Cc1cc2cc(c1)-c1cnn3ccc(nc13)NCCNC(=O)CCN(C)C2 [OD52],inhibition at 0.1 µM,[1],5%
same,inhibition at 0.1 µM,[2],1%
same,inhibition at 0.1 µM,[3],0%
same,inhibition at 0.1 µM,[4],2%
same,inhibition at 0.1 µM,[5],3%
same,inhibition at 0.1 µM,[6],-4%
same,inhibition at 0.1 µM,[7],19%
same,inhibition at 0.1 µM,[8],12%
same,inhibition at 0.1 µM,[9],-4%
same,inhibition at 0.1 µM,[10],2%
same,inhibition at 0.1 µM,[11],-8%
same,inhibition at 0.1 µM,[12],-5%
same,inhibition at 0.1 µM,[13],-20%
same,inhibition at 0.1 µM,[14],10%
same,inhibition at 0.1 µM,[15],37%
same,inhibition at 0.1 µM,[16],4%
same,inhibition at 0.1 µM,[17],9%
same,inhibition at 0.1 µM,[18],3%
same,inhibition at 0.1 µM,[19],-5%
same,inhibition at 0.1 µM,[20],-12%
same,inhibition at 0.1 µM,[21],-9%
same,inhibition at 0.1 µM,[22],-5%
same,inhibition at 0.1 µM,[23],-2%
same,inhibition at 0.1 µM,[24],-6%
same,inhibition at 0.1 µM,[25],-6%
same,inhibition at 0.1 µM,[26],-12%
same,inhibition at 0.1 µM,[27],-6%
same,inhibition at 0.1 µM,[28],1%
same,inhibition at 0.1 µM,[29],-9%
same,inhibition at 0.1 µM,[30],-10%
same,inhibition at 0.1 µM,[31],4%
same,inhibition at 0.1 µM,[32],-13%
same,inhibition at 0.1 µM,[33],-21%
same,inhibition at 0.1 µM,[34],-3%
same,inhibition at 0.1 µM,[35],-4%
same,inhibition at 0.1 µM,[36],-5%
same,inhibition at 0.1 µM,[37],-13%
same,inhibition at 0.1 µM,[38],13%
same,inhibition at 0.1 µM,[39],-2%
same,inhibition at 0.1 µM,[40],-1%
same,inhibition at 0.1 µM,[41],-9%
same,inhibition at 0.1 µM,[42],-9%
same,inhibition at 0.1 µM,[43],5%
